Type in all cases: functional
The subject of assay [1] is Cavia porcellus. As to the kind of experiment: Compound was evaluated for contragestational activity in guinea pig after intraperitoneal administration; Range is 25-50.
Assay [2] deals with Cavia porcellus. In words: Contragestational activity in guinea pig after intraperitoneal administration; Not Significant.
Assay [3] has as its system Cavia porcellus. In words: Compound was evaluated for contragestational activity in guinea pig after intraperitoneal administration; Range is 50-100.
Assay [4] relates to Cavia porcellus. As to the kind of experiment: Compound was evaluated for contragestational activity in guinea pig after intraperitoneal administration; Range is 10-25.
For assay [5], the system named is Cavia porcellus. As to the kind of experiment: Compound was evaluated for contragestational activity in guinea pig after intraperitoneal administration.

The structures appear in SMILES notation. Bounds are passed on as bounds.

In the case of `CC(C)=CCC(=O)C(C)CCC[C@]1(C)OC[C@]2(C(=O)O)CC[C@H]1O2` (stereo partly specified), the Contragestational activity with Cavia porcellus [1] turned out to be 25 mg/kg. In turn, `CC(CCC[C@]1(C)OC[C@]2(CC(=O)O)CC[C@H]1O2)C(=O)O` (stereo partly specified) returned a Contragestational activity in the assay on Cavia porcellus [2] above 100 mg/kg.

`COC(=O)/C=C1\CC[C@@H](OC(C)=O)[C@](C)(CCCC(C)C(O)CC=C(C)C)OC1` (stereo partly specified): the Contragestational activity with Cavia porcellus [2] is above 100 mg/kg.

In turn, `C/C(=C\C(C)(O)C(C)CCC[C@]1(C)OC/C(=C/CO)CC[C@H]1O)C(C)C` (stereo partly specified) registered a Contragestational activity in the assay on Cavia porcellus [2] above 100 mg/kg. Compound `CC(=O)OC/C=C1\CCC(=O)[C@](C)(CCCC(C)C(=O)CC=C(C)C)OC1` (stereo partly specified) yielded a Contragestational activity in the assay with Cavia porcellus [2] above 100 mg/kg. Compound `CC(=O)O[C@@H]1CC/C(=C\CO)CO[C@@]1(C)CCCC(C)C(=O)CC=C(C)C` (stereo partly specified) came in with a Contragestational activity with Cavia porcellus [1] of 25 mg/kg. `CC(=O)OC/C=C1\CC[C@@H](OC(C)=O)[C@](C)(CCCC(C)C(=O)CC=C(C)C)OC1` (stereo partly specified) registered a Contragestational activity with Cavia porcellus [3] of 50 mg/kg.

Turning to `CC(C)=CCC(=O)C(C)CCC[C@]1(C)OC/C(=C/CO)CC[C@H]1O` (stereo partly specified), the Contragestational activity with Cavia porcellus [3] worked out at 50 mg/kg. `CC(=O)OC/C=C1\CC[C@@H](OC(C)=O)[C@](C)(CCCC(C)C(O)CC=C(C)C)OC1` (stereo partly specified): the Contragestational activity with Cavia porcellus [3] came to 50 mg/kg.

Turning to `CC(C)CCC(=O)C(C)CCC[C@]1(C)OCC(CCO)CC[C@H]1O` (stereo partly specified), in the assay with Cavia porcellus [2], the Contragestational activity is above 100 mg/kg.

With `C=C[C@@]12CC[C@@H](O1)[C@](C)(CCCC(C)C(=O)CC=C(C)C)OC2` (stereo partly specified), the Contragestational activity in the assay with Cavia porcellus [2] was above 100 mg/kg. As for `CC(C)=CCC(O)C(C)CCC[C@]1(C)OC/C(=C/CO)CC[C@H]1O` (stereo partly specified), the Contragestational activity with Cavia porcellus [4] was 10 mg/kg. In the assay with Cavia porcellus [3], `CC(C)=CCC(O)C(C)CCC[C@]1(C)OC[C@]2(CCO)CC[C@H]1O2` (stereo partly specified) displayed a Contragestational activity of 50 mg/kg.

`C/C(=C\C(=O)C(C)CCC[C@]1(C)OC[C@]2(CC(=O)O)CC[C@H]1O2)C(C)C` (stereo partly specified) had a Contragestational activity with Cavia porcellus [3] of 50 mg/kg.

Consider `CC(CCC[C@]1(C)OC[C@]2(CC(=O)O)CC[C@H]1O2)C(=O)CC(C)C(C)C` (stereo partly specified), for which the Contragestational activity in the assay on Cavia porcellus [2] was above 100 mg/kg. The same measure, in the same setting: in the case of `CC(CCC[C@]1(C)OC[C@]2(CC(=O)O)CC[C@H]1O2)C(=O)/C=C/C(C)(C)O` (stereo partly specified) it was above 100 mg/kg. In the assay with Cavia porcellus [4], `C#CC(O)(CC=C(C)C)C(C)CCC[C@]1(C)OC[C@]2(CC(=O)O)CC[C@H]1O2` (stereo partly specified) registered a Contragestational activity of 10 mg/kg. With `CC(C)=CCC(O)C(C)CCC[C@]1(C)OC[C@]2(CC=O)CC[C@H]1O2` (stereo partly specified), the Contragestational activity in the assay with Cavia porcellus [5] was below 10 mg/kg. In the assay with Cavia porcellus [5], `CC(C)=CCC(=O)C(C)CCC[C@]1(C)OC[C@]2(CC=O)CC[C@H]1O2` (stereo partly specified) yielded a Contragestational activity below 10 mg/kg.

Turning to `CC(C)CCC(O)C(C)CCC[C@]1(C)OC[C@]2(CC=O)CC[C@H]1O2` (stereo partly specified), in the assay on Cavia porcellus [5], the Contragestational activity is below 10 mg/kg. Still for that read-out and setting: in the case of `CC(C)=CCC(=O)C(C)CCC[C@]1(C)OC[C@]2(CC(=O)O)CC[C@H]1O2` (stereo partly specified) it was below 10 mg/kg. For `CC(C)=CCC(O)C(C)CCC[C@]1(C)OC[C@]2(CC(=O)O)CC[C@H]1O2` (stereo partly specified), in the assay with Cavia porcellus [5], the Contragestational activity is below 10 mg/kg. Regarding `CC(=O)O[C@@H]1CCC(=O)CO[C@@]1(C)CCCC(C)C(=O)O` (stereo partly specified), the Contragestational activity in the assay on Cavia porcellus [2] is above 100 mg/kg. Take `CC(C)=CCC(=O)C(C)CCC[C@]1(C)OC[C@]2(CCO)CC[C@H]1O2` (stereo partly specified): the Contragestational activity in the assay on Cavia porcellus [5] is below 10 mg/kg. In the assay on Cavia porcellus [4], `CC(C)CCC(O)C(C)CCC[C@]1(C)OC[C@]2(CCO)CC[C@H]1O2` (stereo partly specified) gave a Contragestational activity of 10 mg/kg. Compound `C/C(=C\C(=O)C(C)CCC[C@]1(C)OC[C@]2(C(=O)O)CC[C@H]1O2)C(C)C` (stereo partly specified) yielded a Contragestational activity in the assay with Cavia porcellus [2] above 100 mg/kg. Compound `CC(C)=CCC(C)(O)C(C)CCC[C@]1(C)OC[C@]2(CC(=O)O)CC[C@H]1O2` (stereo partly specified) gave a Contragestational activity in the assay on Cavia porcellus [5] below 10 mg/kg. Compound `C/C(=C\C(=O)C(C)CCC[C@]1(C)OC/C(=C/CO)CC[C@H]1O)C(C)C` (stereo partly specified) had a Contragestational activity in the assay with Cavia porcellus [2] above 100 mg/kg.

As for `CC(C)=CCC(O)C(C)CCC[C@]1(C)OC[C@]2(C(=O)O)CC[C@H]1O2` (stereo partly specified), the Contragestational activity with Cavia porcellus [4] worked out at 10 mg/kg.

Compound `CC(C)CCC(O)C(C)CCC[C@]1(C)OC[C@]2(CC(=O)O)CC[C@H]1O2` (stereo partly specified) had a Contragestational activity in the assay with Cavia porcellus [5] below 10 mg/kg. Take `C#CC(O)(CC=C(C)C)C(C)CCC[C@]1(C)OC/C(=C/CO)CC[C@H]1O` (stereo partly specified): the Contragestational activity in the assay on Cavia porcellus [2] was above 100 mg/kg. On to `CC(C)=CCC(C)(O)C(C)CCC[C@]1(C)OC/C(=C/CO)CC[C@H]1O` (stereo partly specified), for which, in the assay with Cavia porcellus [4], the Contragestational activity turned out to be 10 mg/kg. Regarding `C/C(=C\C(O)C(C)CCC[C@]1(C)OC/C(=C/CO)CC[C@H]1O)C(C)C` (stereo partly specified), the Contragestational activity in the assay with Cavia porcellus [2] was above 100 mg/kg.

In turn, `CC(CCC[C@]1(C)OC/C(=C/CO)CC[C@H]1O)C(=O)/C=C/C(C)(C)O` (stereo partly specified) returned a Contragestational activity in the assay on Cavia porcellus [2] above 100 mg/kg. `COC(=O)C[C@@]12CC[C@@H](O1)[C@](C)(CCCC(C)C(O)CC=C(C)C)OC2` (stereo partly specified): in the assay on Cavia porcellus [5], the Contragestational activity is below 10 mg/kg. `CC(=O)OC/C=C1\CC[C@@H](O)[C@](C)(CCCC(C)C(=O)CC=C(C)C)OC1` (stereo partly specified): the Contragestational activity with Cavia porcellus [3] is 50 mg/kg. With `CC(C)CCC(=O)C(C)CCC[C@]1(C)OC[C@]2(CC(=O)O)CC[C@H]1O2` (stereo partly specified), the Contragestational activity in the assay with Cavia porcellus [1] is 25 mg/kg. In the assay with Cavia porcellus [4], `CC(=O)O[C@@H]1CC/C(=C\C=O)CO[C@@]1(C)CCCC(C)C(=O)CC=C(C)C` (stereo partly specified) showed a Contragestational activity of 10 mg/kg. On to `COC(=O)C[C@@]12CC[C@@H](O1)[C@](C)(CCCC(C)CO)OC2` (stereo partly specified), for which the Contragestational activity in the assay on Cavia porcellus [2] was above 100 mg/kg. In turn, `CC(CCC[C@]1(C)OC/C(=C/CO)CC[C@H]1O)C(=O)/C=C/C(C)(C)OO` (stereo partly specified) displayed a Contragestational activity in the assay with Cavia porcellus [2] above 100 mg/kg. For the compound `CC(=O)OC/C=C1\CC[C@@H](OC(C)=O)[C@](C)(CCCC(C)C(CC=C(C)C)OC(C)=O)OC1` (stereo partly specified), the Contragestational activity in the assay on Cavia porcellus [1] worked out at 50 mg/kg.

Values taken from ChEMBL document CHEMBL1123017, “Synthesis and antifertility activity of zoapatanol analogues” (1985).
